In patent US20210269434A1, “TRICYCLIC COMPOUNDS AS INHIBITORS OF KRAS” (Incyte Corporation, priority 2020, published 2021):

Assays:
[1] = test system: MIA PaCa-2 (KRAS G12C) cells; assay: Cellular pERK HTRF assay (KRAS_G12C pERK); type: cell-based, human; settings: Homo sapiens, MIA PaCa-2, 4 hours incubation, read-out: G12C_pERK
Method in brief: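 MIA PaCa-2 cells plated overnight, then exposed to compound for 4 h at 37 °C (G12C compounds). Phospho-ERK1/2 measured in lysates by HTRF (665/620 nm) after overnight antibody incubation; IC50 from percent inhibition versus log concentration.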

KRAS G12C = KRAS G12C (Homo sapiens, UniProt P01116, G12C); assay: GDP-GTP exchange assay (KRAS_G12C exchange); type: biochemical; settings: bodipy-GDP loaded KRAS G12C 2.5 nM, SOS1 150 nM, GppNHp; 2 hours pre-incubation, 2 hours reaction; read-out: G12C_exchange
Method in brief: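 Fluorescence exchange of bodipy-GDP for GppNHp, SOS1-driven, read at 485/520 nm; IC50 from four-parameter variable-slope fit. Both mutants used 2.5 nM final labelled protein and a 2 h compound pre-incubation. G12C reaction had 500 uM GppNHp and 150 nM SOS1 for 2 h; G12D ran 4 h.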

Chain of KRAS G12C (P01116 1-188 isoform P01116-2 G12C): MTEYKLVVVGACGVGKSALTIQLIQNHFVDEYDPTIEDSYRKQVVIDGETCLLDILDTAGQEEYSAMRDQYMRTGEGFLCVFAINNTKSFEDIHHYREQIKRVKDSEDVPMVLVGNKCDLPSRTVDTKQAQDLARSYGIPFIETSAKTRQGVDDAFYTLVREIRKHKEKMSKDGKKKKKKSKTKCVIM

Compound | IC50 [1] | IC50 (KRAS G12C)
C=CC(=O)N1CC[C@H](n2cnc3c(N4CC(N(C)C)C4)nc4c(F)c(-c5cc(O)ccc5F)c(Cl)cc4c32)C[C@H]1CC#N [Example 55, 2-((2S,4S)-1-acryloyl-4-(8-chloro-4-(3-(dimethylamino)azetidin-1-yl)-6-fluoro-7-(2-fluoro-5-hydroxyphenyl)-1H-imidazo[4,5-c]quinolin-1-yl)piperidin-2-yl)acetonitrile] | ≤ 100 nM | ≤ 100 nM
C=CC(=O)N1CC[C@H](n2cnc3c(N4CC(N(C)C)C4)nc4c(F)c(-c5ccccc5F)c(Cl)cc4c32)C[C@H]1CC#N [Example 56, 2-((2S,4S)-1-acryloyl-4-(8-chloro-4-(3-(dimethylamino)azetidin-1-yl)-6-fluoro-7-(2-fluorophenyl)-1H-imidazo[4,5-c]quinolin-1-yl)piperidin-2-yl)acetonitrile] | ≤ 100 nM | ≤ 100 nM
C=CC(=O)N1CC[C@H](n2cnc3c(N4CC(N(C)C)C4)nc4c(F)c(-c5ccccc5Cl)c(Cl)cc4c32)C[C@H]1CC#N [Example 57, 2-((2S,4S)-1-acryloyl-4-(8-chloro-7-(2-chlorophenyl)-4-(3-(dimethylamino)-azetidin-1-yl)-6-fluoro-1H-imidazo[4,5-c]quinolin-1-yl)piperidin-2-yl)acetonitrile] | ≤ 100 nM | ≤ 100 nM
C=CC(=O)N1CC[C@H](n2cnc3c(N4CC(N(C)C)C4)nc4c(F)c(-c5cccc(F)c5Cl)c(Cl)cc4c32)C[C@H]1CC#N [Example 58, 2-((2S,4S)-1-acryloyl-4-(8-chloro-7-(2-chloro-3-fluorophenyl)-4-(3-(dimethyl-amino)azetidin-1-yl)-6-fluoro-1H-imidazo[4,5-c]quinolin-1-yl)piperidin-2-yl)acetonitrile] | ≤ 100 nM | ≤ 100 nM

More lines, now with the values ahead:

IC50 [1] | IC50 (KRAS G12C) | Compound
≤ 100 nM | ≤ 100 nM | C=CC(=O)N1CC[C@H](n2cnc3c(N4CC(N(C)C)C4)nc4c(F)c(-c5ccc(C)cc5C)c(Cl)cc4c32)C[C@H]1CC#N [Example 59, 2-((2S,4S)-1-acryloyl-4-(8-chloro-4-(3-(dimethylamino)azetidin-1-yl)-7-(2,4-dimethylphenyl)-6-fluoro-1H-imidazo[4,5-c]quinolin-1-yl)piperidin-2-yl)acetonitrile]
≤ 100 nM | ≤ 100 nM | C=CC(=O)N1CC[C@H](n2cnc3c(N4CC(N(C)C)C4)nc4c(F)c(-c5cc(C)ccc5C)c(Cl)cc4c32)C[C@H]1CC#N [Example 60, 2-((2S,4S)-1-acryloyl-4-(8-chloro-4-(3-(dimethylamino)azetidin-1-yl)-7-(2,5-dimethylphenyl)-6-fluoro-1H-imidazo[4,5-c]quinolin-1-yl)piperidin-2-yl)acetonitrile]
≤ 100 nM | ≤ 100 nM | C=CC(=O)N1CC[C@H](n2cnc3c(N4CC(N(C)C)C4)nc4c(F)c(-c5cccc(Cl)c5C)c(Cl)cc4c32)C[C@H]1CC#N [Example 61, 2-((2S,4S)-1-acryloyl-4-(8-chloro-7-(3-chloro-2-methylphenyl)-4-(3-(dimethyl-amino)azetidin-1-yl)-6-fluoro-1H-imidazo[4,5-c]quinolin-1-yl)piperidin-2-yl)acetonitrile]
≤ 100 nM | ≤ 100 nM | C=CC(=O)N1C[C@H](n2cnc3c(N4CC(N(C)C)C4)nc4c(F)c(-c5cccc(C)c5C)c(Cl)cc4c32)C[C@@H]1CC#N [Example 62, 2-((2R,4R)-1-acryloyl-4-(8-chloro-4-(3-(dimethylamino)azetidin-1-yl)-7-(2,3-dimethylphenyl)-6-fluoro-1H-imidazo[4,5-c]quinolin-1-yl)pyrrolidin-2-yl)acetonitrile]
≤ 100 nM | ≤ 100 nM | C=CC(=O)N1C[C@H](n2cnc3c(N4CC(N(C)C)C4)nc4c(F)c(-c5cccc6ccccc56)c(Cl)cc4c32)C[C@@H]1CC#N [Example 63, 2-((2R,4R)-1-acryloyl-4-(8-chloro-4-(3-(dimethylamino)azetidin-1-yl)-6-fluoro-7-(naphthalen-1-yl)-1H-imidazo[4,5-c]quinolin-1-yl)pyrrolidin-2-yl)acetonitrile]
